Results reported in PMC11062899, “De novo development of small cyclic peptides that are orally bioavailable” (Nature Chemical Biology, 2023).
Several values for one entry are separate records, joined by “and”; a condition that tells them apart may be missing. Equal entries are not always repeated. Where two headings read alike, the source gives them in different places.

What was measured:
[1] = Peptide stability in simulated intestinal fluid (SIF); format: in vitro ADME, porcine; settings: simulated gi fluid; 8 h, 37 °C, pH 6.8; read-out: Proteolytic stability: SIF (8 h) % remaining
In short: (§1)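 Peptide from a 1 mM DMSO stock was added to fluid pre-warmed at 37 °C. SGF was pH 1.2 NaCl with porcine pepsin (0.32 g per 100 ml), and SIF was pH 6.8 potassium phosphate with porcine pancreatin (1 g per 100 ml). Supernatant peptide was quantified by LC–MS, with residual expressed as T1/T0.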

porcine pancreatin = assay: as above; format: in vitro ADME; settings: after 8 h vs 0 h (TIC)
In short: as §1

porcine pepsin = target: T1, porcine pepsin (Sus scrofa, UniProt P00791); assay: Peptide stability in simulated gastric fluid (SGF); format: in vitro ADME
T1 construct: 0.32 g of porcine pepsin (Sigma-Aldrich, P7125) was dissolved under gentle agitation; purchased Sigma-Aldrich P7125
T1 sequence (P00791 60-385): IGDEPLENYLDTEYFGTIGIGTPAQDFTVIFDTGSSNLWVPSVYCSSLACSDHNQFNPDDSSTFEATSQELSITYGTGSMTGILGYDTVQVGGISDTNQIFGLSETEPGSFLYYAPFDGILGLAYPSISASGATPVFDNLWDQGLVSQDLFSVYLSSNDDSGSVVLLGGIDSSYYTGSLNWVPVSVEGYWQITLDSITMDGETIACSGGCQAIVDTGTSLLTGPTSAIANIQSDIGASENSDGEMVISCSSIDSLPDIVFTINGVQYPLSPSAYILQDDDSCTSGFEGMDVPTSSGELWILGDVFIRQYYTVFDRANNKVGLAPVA
In short: as §1

rat α-thrombin = target: T2, rat α-thrombin (Rattus norvegicus, UniProt P18292); assay: Protease inhibition, Ki for rat α-thrombin (fluorogenic substrate Z-Gly-Gly-Arg-AMC); format: biochemical; settings: for Slope normalized to DMSO (proteolytic substrate cleavage over time): replicates R1-R3
T2 construct: rat α-thrombin (Molecular Innovations) were used at final concentrations of 2 nM and 3 nM; purchased Molecular Innovations
In short: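 Inhibition was measured as AMC fluorescence from 50 μM substrate, monitored for 30 min at 25 °C, relative to a peptide-free control. Human and rat enzymes were present at 2 nM and 3 nM final, respectively, in 50 mM Tris-HCl pH 7.4, 150 mM NaCl, 10 mM MgCl2, 1 mM CaCl2. Ki derives from fitted IC50 via Cheng–Prusoff.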

[2] = Passive artificial membrane permeability (PAMPA)
[3] = Metabolic stability in rat liver microsomes (RLMs); settings: for TIC value of compound, metabolic stability RLM: replicates R1-R3; for microsomal CLint / half-life: rat

- remaining at 8 h [1]: 82 ± 10%
- SIF stability, Residual peptide Average (porcine pancreatin; average of R1-R3): 82.44
- SIF stability, Residual peptide (porcine pancreatin; single replicates R1-R3): 91.81 and 71.29 and 84.22
- SGF stability, Residual peptide Average (porcine pepsin; after 8 h vs 0 h (TIC), average of R1-R3): 106.85
- SGF stability, Residual peptide (porcine pepsin; after 8 h vs 0 h (TIC), single replicates R1-R3): 117.40 and 115.58 and 87.56
- remaining at 8 h (porcine pepsin; simulated gi fluid, 8 h, 37 °C, pH 1.2, read-out: Proteolytic stability: SGF (8 h) % remaining): 107 ± 17%
- Ki (rat α-thrombin; purified peptide, mean and s.d. of three measurements, read-out: Ki rat α-thrombin): 1.1 ± 0.41 nM
- Slope normalized to DMSO (proteolytic substrate cleavage over time) (rat α-thrombin; rat alpha thrombin, peptide 1.02E-03 uM): 71.6 and 67.2 and 58.0
- Slope normalized to DMSO (proteolytic substrate cleavage over time) (rat α-thrombin; rat alpha thrombin, peptide 1.04E+00 uM): 6.5 and 8.7 and 6.4
- Slope normalized to DMSO (proteolytic substrate cleavage over time) (rat α-thrombin; rat alpha thrombin, peptide 1.27E-04 uM): 89.6 and 85.7 and 79.9
- Slope normalized to DMSO (proteolytic substrate cleavage over time) (rat α-thrombin; rat alpha thrombin, peptide 1.30E-01 uM): 12.8 and 13.3 and 8.9
- Slope normalized to DMSO (proteolytic substrate cleavage over time) (rat α-thrombin; rat alpha thrombin, peptide 1.59E-05 uM): 102.5 and 122.8 and 94.2
- Slope normalized to DMSO (proteolytic substrate cleavage over time) (rat α-thrombin; rat alpha thrombin, peptide 1.63E-02 uM): 35.3 and 31.4 and 27.2
- Slope normalized to DMSO (proteolytic substrate cleavage over time) (rat α-thrombin; rat alpha thrombin, peptide 1.67E+01 uM): 4.8 and 5.1 and 4.2
- Slope normalized to DMSO (proteolytic substrate cleavage over time) (rat α-thrombin; rat alpha thrombin, peptide 2.03E-03 uM): 56.5 and 52.5 and 45.1
- Slope normalized to DMSO (proteolytic substrate cleavage over time) (rat α-thrombin; rat alpha thrombin, peptide 2.08E+00 uM): 5.0 and 7.7 and 6.7
- Slope normalized to DMSO (proteolytic substrate cleavage over time) (rat α-thrombin; rat alpha thrombin, peptide 2.54E-04 uM): 83.1 and 80.0 and 103.6
- Slope normalized to DMSO (proteolytic substrate cleavage over time) (rat α-thrombin; rat alpha thrombin, peptide 2.60E-01 uM): 12.7 and 11.2 and 6.9
- Slope normalized to DMSO (proteolytic substrate cleavage over time) (rat α-thrombin; rat alpha thrombin, peptide 3.18E-05 uM): 95.8 and 95.0 and 90.9
- Slope normalized to DMSO (proteolytic substrate cleavage over time) (rat α-thrombin; rat alpha thrombin, peptide 3.26E-02 uM): 29.1 and 26.7 and 19.1
- Slope normalized to DMSO (proteolytic substrate cleavage over time) (rat α-thrombin; rat alpha thrombin, peptide 3.33E+01 uM): 5.0 and 6.0 and 4.0
- Slope normalized to DMSO (proteolytic substrate cleavage over time) (rat α-thrombin; rat alpha thrombin, peptide 4.07E-03 uM): 51.9 and 49.0 and 39.9
- Slope normalized to DMSO (proteolytic substrate cleavage over time) (rat α-thrombin; rat alpha thrombin, peptide 4.17E+00 uM): 5.5 and 6.1 and 4.2
- Slope normalized to DMSO (proteolytic substrate cleavage over time) (rat α-thrombin; rat alpha thrombin, peptide 5.09E-04 uM): 76.1 and 71.5 and 67.7
- Slope normalized to DMSO (proteolytic substrate cleavage over time) (rat α-thrombin; rat alpha thrombin, peptide 5.21E-01 uM): 9.5 and 9.3 and 6.7
- Slope normalized to DMSO (proteolytic substrate cleavage over time) (rat α-thrombin; rat alpha thrombin, peptide 6.36E-05 uM): 93.9 and 94.0 and 87.7
- Slope normalized to DMSO (proteolytic substrate cleavage over time) (rat α-thrombin; rat alpha thrombin, peptide 6.51E-02 uM): 18.8 and 16.8 and 12.8
- Slope normalized to DMSO (proteolytic substrate cleavage over time) (rat α-thrombin; rat alpha thrombin, peptide 6.67E+01 uM): 5.5 and 6.5 and 3.1
- Slope normalized to DMSO (proteolytic substrate cleavage over time) (rat α-thrombin; rat alpha thrombin, peptide 7.95E-06 uM): 102.1 and 101.6 and 99.0
- Slope normalized to DMSO (proteolytic substrate cleavage over time) (rat α-thrombin; rat alpha thrombin, peptide 8.14E-03 uM): 40.8 and 35.1 and 27.1
- Slope normalized to DMSO (proteolytic substrate cleavage over time) (rat α-thrombin; rat alpha thrombin, peptide 8.33E+00 uM): 4.4 and 7.1 and 3.1
- IC50 (rat α-thrombin; rat alpha thrombin, single replicates R1-R3, read-out: IC50, rat alpha thrombin inhibition): 2.94 nM and 1.12 nM and 1.9 nM
- PAMPA permeability: % permeability ([2]; 50 μM, 12–18 h, acceptor concentration relative to equilibrium): 47 ± 12%
- Papp at 50 μM ([2]; PAMPA, pH 7.4): 6.17 ×10⁻⁶ cm/s
- Permeability% Average ([2]; top well sample vs theoretical equilibrium sample (TIC), average of R1-R3): 46.9%
- Permeability% ([2]; top well sample vs theoretical equilibrium sample (TIC), single replicates R1-R3): 48.47% and 34.58% and 57.51%
- TIC value of compound, metabolic stability RLM ([3]; 0 min): 4102350 (2×) and 4260631
- TIC value of compound, metabolic stability RLM ([3]; 5 min): 2223511 and 2018425 and 2686035
- TIC value of compound, metabolic stability RLM ([3]; 15 min): 283425 and 185564 and 435364
- TIC value of compound, metabolic stability RLM ([3]; 30 min): 0 (2×) and 35161
- TIC value of compound, metabolic stability RLM ([3]; 60 min): 0
- TIC value of compound, 0 min, R1 ([3]; rat liver microsomes, 0 min, replicate R1): 4102350
- TIC value of compound, 0 min, R3 ([3]; rat liver microsomes, 0 min, replicate R3): 4260631
- TIC value of compound, 5 min, R1 ([3]; rat liver microsomes, 5 min, replicate R1): 2223511
- TIC value of compound, 5 min, R3 ([3]; rat liver microsomes, 5 min, replicate R3): 2686035
- TIC value of compound, 15 min, R1 ([3]; rat liver microsomes, 15 min, replicate R1): 283425
- TIC value of compound, 15 min, R3 ([3]; rat liver microsomes, 15 min, replicate R3): 435364
- TIC value of compound, 30 min, R1 ([3]; rat liver microsomes, 30 min, replicate R1): 0
- TIC value of compound, 30 min, R3 ([3]; rat liver microsomes, 30 min, replicate R3): 35161
- TIC value of compound, 60 min, R1 ([3]; rat liver microsomes, 60 min, replicate R1): 0
- TIC value of compound, 60 min, R3 ([3]; rat liver microsomes, 60 min, replicate R3): 0
- microsomal CLint ([3]; CL (ul/min/mg protein), R1, RLM CL, replicate R1, unrounded): 278 µL/min/mg
- microsomal CLint ([3]; CL (ul/min/mg protein), R2, RLM CL, replicate R2, unrounded): 276 µL/min/mg
- microsomal CLint ([3]; CL (ul/min/mg protein), R3, RLM CL, replicate R3, unrounded): 234 µL/min/mg
- half-life ([3]; Half Life (min) in RLMs (single replicates R1–R3), Fig. 5e source data): 4.98 min
- half-life ([3]; Half Life (min), R1, RLM metabolic stability, replicate R1): 4.98 min
- half-life ([3]; Half Life (min), R2, RLM metabolic stability, replicate R2): 5.02 min
- half-life ([3]; Half Life (min), R3, RLM metabolic stability, replicate R3): 5.93 min
- microsomal CLint ([3]; microsomes, Clearance (CL) in RLMs, calculated from half-life, mean and s.d. of three measurements): 260 ± 20 µL/min/mg
- half-life ([3]; microsomes, Half Life, RLM, individual replicates R1-R3): 4.98 min
- half-life ([3]; microsomes, Metabolic stability: Half life T1/2 (min), RLMs, mean and SD, three measurements): 5.3 ± 0.4 min
- microsomal CLint ([3]; microsomes, RLM CL, Average, average of R1-R3): 263 µL/min/mg
- microsomal CLint ([3]; microsomes, RLM CL, R1, RLM CL, replicate R1, summary block): 278 µL/min/mg
- microsomal CLint ([3]; microsomes, RLM CL, R2, RLM CL, replicate R2, summary block): 276 µL/min/mg
- microsomal CLint ([3]; microsomes, RLM CL, R3, RLM CL, replicate R3, summary block): 234 µL/min/mg
Compound: O=C1C[C@H]2CCCN2C(=O)[C@H](Cc2ccccc2)NC(=O)[C@@H](NC(=O)c2ccc(Cl)s2)CSC/C=C/CSCCN1 [peptide 32]
- Ki (rat α-thrombin; rat alpha thrombin, single replicates R1-R3, read-out: Ki, rat alpha thrombin inhibition): 1.63 nM (2×) and 0.618 nM (2×) and 1.05 nM
